Assay results reported in article PMC10082216 (Nature Communications, 2023).

How the values were obtained:
[1] = Population PK modeling and simulation of TD-6450 (NONMEM); set-up: species or system human
Text: Data were pooled from two healthy volunteer studies, one single ascending dose (SAD) and the other multiple ascending dose (MAD). Observed concentration data were transformed into their natural logarithms and evaluated using nonlinear mixed-effects modeling in NONMEM v7.4 (Icon Development Solution, Ellicott City, MD). Pirana v3.0, Perl-speaks-NONMEM (PsN) v4.8.1, and Xpose version 4.7.1, were used for automation, model evaluation, and diagnostics during the model building process.
Different structural distribution models were evaluated (1-, 2-, and 3-compartment models) as well as different absorption models (first-order absorption and transit-compartment (n = 1–10) models). Relative bioavailability was fixed to unity for the population to evaluate inter-individual variability and the influence of covariates in the same parameter. […] Other biologically plausible covariate-parameter relationships (i.e. sex and age on all parameters, dose amount and duration of treatment on elimination clearance, absorption rate and relative bioavailability, concomitant food intake on absorption rate and relative bioavailability, and creatinine clearance on elimination clearance) were evaluated with a stepwise addition (p < 0.05) and elimination (p < 0.001) approach. All significant covariates in the forward step were evaluated with both linear and nonlinear functions, and the best-performing model was retained for the backward elimination step. Pharmacokinetic parameters were assumed to be log-normally distributed, and inter-individual variability (IIV) and inter-occasion variability (IOV) were implemented as exponential functions. Estimated IIV below 10% was removed in the final model, and IOV was estimated only on absorption parameters.
Model fit was evaluated primarily by the objective function value (OFV; calculated by NONMEM as proportional to −2 × log-likelihood of the data). Model discrimination between two hierarchical models was determined by a likelihood ratio test, based on the Chi-square distribution of the OFV (i.e. p-value < 0.05 corresponding to ΔOFV > 3.84, at a 1 degree of freedom difference). Goodness-of-fit was used to evaluate the descriptive performances of developed models. Prediction- and variability-corrected visual predictive checks (pvcVPC, n = 2000 simulations) were used to assess the predictive performance of developed models.

[2] = test system: stage V gametocytes of P. falciparum (3D7 pULG8-GFP strain); experiment: Post-screening validation with 96-well plate microsphiltration (Paris); type: cell-based, Plasmodium falciparum; settings: eight-hour exposure
[3] = random effect, variance estimate
[4] = residual error, variance estimate
[5] = typical individual 80 kg, steady-state, high oral dose, fasting

In the case of `CNC(=O)N1C[C@@H](C)N(c2ccc(C(=O)Nc3ccc(-c4ccc(-c5c[nH]c([C@@H]6CCCN6C(=O)[C@@H](NC(=O)OC)C(C)C)n5)cc4)c(OC(F)(F)F)c3)cn2)C[C@@H]1C` [TD-6450], the “decrease in relative bioavailability per 100 mg increase in dose” value ([1]; above 240 mg (240 to 500 mg)) is reported as 24.7%, the “Dose on CL/F, population estimate (%RSE)” value ([1]; covariate relationship) is reported as 1.35 (17.9) and the “Dose on F, SIR median (95%CI)” value ([1]; covariate relationship) is reported as -0.241 (-0.207 to -0.284). The “Dose on F, population estimate (%RSE)” value ([1]; covariate relationship) was -0.247 (7.92), the “Food on F, SIR median (95%CI)” value ([1]; covariate relationship) was 0.683 (0.475 to 0.885) and the “Food on F, population estimate (%RSE)” value ([1]; covariate relationship) was 0.685 (15.0). The “Food on MTT, SIR median (95%CI)” value ([1]; covariate relationship) was 0.927 (0.696 to 1.19), the “Food on MTT, population estimate (%RSE)” value ([1]; covariate relationship) was 0.933 (10.3) and the “Time dep. F, SIR median (95%CI)” value ([1]; covariate relationship) was 0.441 (0.355 to 0.569). The “Time dep. F, population estimate (%RSE)” value ([1]; covariate relationship) was 0.439 (12.5), the “higher bioavailability when administered with food” value ([1]; food covariate) was 68.5% and the “longer absorption time when administered with food” value ([1]; food covariate) was 93.3%. The “IIV CL/F, population estimate (%RSE)” value [1, 3] was 0.0148 (21.5), the “IIV F, SIR median (95%CI)” value [1, 3] was 0.151 (0.110 to 0.207) and the “IIV F, population estimate (%RSE)” value [1, 3] was 0.150 (16.7). For the same molecule, the “IIV MTT, SIR median (95%CI)” value [1, 3] was 0.0683 (0.0551 to 0.0830), the “IIV MTT, population estimate (%RSE)” value [1, 3] was 0.0683 (10.3) and the “IIV Vc/F, SIR median (95%CI)” value [1, 3] was 0.0394 (0.0246 to 0.0514). For the same molecule, the “IIV Vc/F, population estimate (%RSE)” value [1, 3] was 0.0391 (17.3), the “IIV Vp/F, SIR median (95%CI)” value [1, 3] was 0.0719 (0.0568 to 0.0919) and the “IIV Vp/F, population estimate (%RSE)” value [1, 3] was 0.0713 (12.9). For the same molecule, the “IOV F, SIR median (95%CI)” value [1, 3] was 0.0622 (0.0445 to 0.0794), the “IOV F, population estimate (%RSE)” value [1, 3] was 0.0631 (13.9) and the “IOV MTT, SIR median (95%CI)” value [1, 3] was 0.0870 (0.0613 to 0.118). For the same molecule, the “IOV MTT, population estimate (%RSE)” value [1, 3] was 0.0866 (17.1), the “RUV, SIR median (95%CI)” value [1, 4] was 0.0568 (0.0520 to 0.0624) and the “RUV, population estimate (%RSE)” value [1, 4] was 0.242 (4.48). For the same molecule, the “CL/F, SIR median (95%CI)” value ([1]; sampling importance resampling) was 12.1 (10.8 to 13.6) L/h, the “MTT, SIR median (95%CI)” value ([1]; sampling importance resampling) was 2.30 (2.13 to 2.50) h and the “Q/F, SIR median (95%CI)” value ([1]; sampling importance resampling) was 28.5 (22.5 to 35.5) L/h. The “Vc/F, SIR median (95%CI)” value ([1]; sampling importance resampling) was 539 (464 to 626) L, the “Vp/F, SIR median (95%CI)” value ([1]; sampling importance resampling) was 445 (384 to 513) L and the “CL/F, population estimate (%RSE)” value [1, 5] was 12.1 (6.19) L/h. For the same molecule, the “MTT, population estimate (%RSE)” value [1, 5] was 2.30 (4.14) h, the “Q/F, population estimate (%RSE)” value [1, 5] was 28.4 (11.4) L/h and the “Vc/F, population estimate (%RSE)” value [1, 5] was 537 (7.89) L. For the same molecule, the “Vp/F, population estimate (%RSE)” value [1, 5] was 444 (7.36) L and the “concentration that significantly stiffens mature gametocytes” value [2] was 200 nM.
